In US9802943B2, “HIV inhibiting bicyclic pyrimidine derivatives” (Janssen Sciences Ireland UC, priority 2004, dated 2017):

Key:
[1] = test system: Strain G (mutations L100I, K103N, Y181C, V179I E138G L214F, V278V/I and A327A/V in HIV reverse transcriptase); test: cellular antiviral assay, HIV mutant strain G; assay type: cell-based; conditions: for EC50: Human immunodeficiency virus 1, read-out: pEC50 G (converted); for pEC50 G: strain G, L100I, K103N, Y181C, V179I E138G L214F, V278V/I and A327A/V
Protocol: (§1) Because of the increasing emergence of drug resistant HIV strains, the present compounds were tested for their potency against clinically isolated HIV strains harboring several mutations. These mutations are associated with resistance to reverse transcriptase inhibitors and result in viruses that show various degrees of phenotypic cross-resistance to the currently commercially available drugs such as for instance AZT and delavirdine.
(§2) The antiviral activity of the compound of the present invention has been evaluated in the presence of wild type HIV and HIV mutants bearing mutations at the reverse transcriptase gene. The activity of the compounds is evaluated using a cellular assay and the residual activity is expressed in pEC50 values. The columns IIIB and A-G in the table list the pEC50 values against various strains IIIB, A-G. • Strain IIIB is wild type HIV-LAI strain • Strain A contains mutation Y181C in HIV reverse transcriptase, • Strain B contains mutation K103N in HIV reverse transcriptase, • Strain C contains mutation L100I in HIV reverse transcriptase, • Strain D contains mutation Y188L in HIV reverse transcriptase, • Strain E contains mutations L100I and K103N in HIV reverse transcriptase, • Strain F contains mutations K103N and Y181C in HIV reverse transcriptase, and • Strain G contains mutations L100I, K103N, Y181C, V179I E138G L214F, V278V/I • and A327A/V in HIV reverse transcriptase.

[2] = test system: Strain B (mutation K103N in HIV reverse transcriptase); test: cellular antiviral assay, HIV mutant strain B; assay type: cell-based; conditions: for EC50: Human immunodeficiency virus 1, read-out: pEC50 B (converted); for pEC50 B: strain B, K103N
Protocol: as §1, §2

[3] = test system: Strain D (mutation Y188L in HIV reverse transcriptase); test: cellular antiviral assay, HIV mutant strain D; assay type: cell-based; conditions: for EC50: Human immunodeficiency virus 1, read-out: pEC50 D (converted); for pEC50 D: strain D, Y188L
Protocol: as §1, §2

[4] = test system: Strain IIIB (wild type HIV-LAI strain); test: cellular antiviral assay, wild type HIV; assay type: cell-based; conditions: for EC50: Human immunodeficiency virus 1, IIIB, read-out: pEC50 IIIB (converted); for pEC50 IIIB: strain IIIB, wild type HIV-LAI
Protocol: as §1, §2

[5] = test system: Strain E (mutations L100I and K103N in HIV reverse transcriptase); test: cellular antiviral assay, HIV mutant strain E; assay type: cell-based; conditions: for EC50: Human immunodeficiency virus 1, read-out: pEC50 E (converted); for pEC50 E: strain E, L100I and K103N
Protocol: as §1, §2

[6] = test system: Strain A (mutation Y181C in HIV reverse transcriptase); test: cellular antiviral assay, HIV mutant strain A; assay type: cell-based; conditions: for EC50: Human immunodeficiency virus 1, read-out: pEC50 A (converted); for pEC50 A: strain A, Y181C
Protocol: as §1, §2

[7] = test system: Strain C (mutation L100I in HIV reverse transcriptase); test: cellular antiviral assay, HIV mutant strain C; assay type: cell-based; conditions: for EC50: Human immunodeficiency virus 1, read-out: pEC50 C (converted); for pEC50 C: strain C, L100I
Protocol: as §1, §2

[8] = test system: Strain F (mutations K103N and Y181C in HIV reverse transcriptase); test: cellular antiviral assay, HIV mutant strain F; assay type: cell-based; conditions: for EC50: Human immunodeficiency virus 1, read-out: pEC50 F (converted); for pEC50 F: strain F, K103N and Y181C
Protocol: as §1, §2

Compound	EC50 [1]	EC50 [2]	EC50 [3]	EC50 [4]	EC50 [5]	EC50 [6]	melting point	EC50 [7]	EC50 [8]	pEC50 G [1]	pEC50 B [2]	pEC50 D [3]	pEC50 IIIB [4]	pEC50 E [5]	pEC50 A [6]	pEC50 C [7]	pEC50 F [8]
CCOC(=O)c1cc(C)c(N2CCc3c(C)nc(Nc4ccc(C#N)cc4)nc32)c(C)c1 [Compound 33]	12600 nM	126 nM	631 nM	50.1 nM	3980 nM	2510 nM	92 °C	794 nM	3160 nM	–	–	–	–	–	–	–	–
Cc1cc(/C=C/C#N)cc(C)c1-n1c(=S)[nH]c2cnc(Nc3ccc(C#N)cc3)nc21 [Compound 31]	15800 nM	2.51 nM	79.4 nM	1 nM	398 nM	12.6 nM	> 250 °C	2.51 nM	39.8 nM	–	–	–	–	–	–	–	–
CCc1cc(CCC#N)ccc1N1CCc2c(C)nc(Nc3ccc(C#N)cc3)nc21 [Compound 17]	–	–	–	–	–	–	–	–	–	5.7	8.9	7.7	9	7.8	8.2	8.6	7.2
Cc1cc(/C=C/C#N)cc(C)c1-n1c(-c2ccccc2)nc2cnc(Nc3ccc(C#N)cc3)nc21 [Compound 23]	–	–	–	–	–	–	–	–	–	5.7	7.6	7.7	7.7	6.3	7.1	7.5	6.4
CCc1cc(C=CC#N)cc(Br)c1N1CCc2c(C)nc(Nc3ccc(C#N)cc3)nc21 (mixture of isomers) [Compound 6]	–	–	–	–	–	–	–	–	–	5.5	8.3	7.5	8.3	8.3	7.7	8.4	7.5
CCc1cc(CCC#N)cc(CC)c1N1CCc2c(C)nc(Nc3ccc(C#N)cc3)nc21 [Compound 16]	–	–	–	–	–	–	–	–	–	5.8	8.2	7	8.2	8.1	7.7	8.6	7.3
Cc1nc(Nc2ccc(C#N)cc2)nc2c1CCN2c1c(Cl)cc(C=CC#N)cc1Cl (mixture of isomers) [Compound 7b]	–	–	–	–	–	–	–	–	–	5.4	9	7.7	9.1	8.5	8.1	9.1	7.7
Cc1cc(C=CC#N)cc(Br)c1N1CCc2c(C)nc(Nc3ccc(C#N)cc3)nc21 (mixture of isomers) [Compound 9]	–	–	–	–	–	–	–	–	–	<4.6	8.4	8.4	8.9	7.8	8.3	8.7	7.7
Cc1cc(CCC#N)ccc1N1CCc2c(C)nc(Nc3ccc(C#N)cc3)nc21 [Compound 14]	–	–	–	–	–	–	–	–	–	5.5	8.5	7	8.9	7.2	7.8	8.4	6.9
Cc1cc(C=CC#N)cc(C)c1N1CCc2c(C)nc(Nc3ccc(C#N)cc3)nc21 (mixture of isomers) [Compound 11]	–	–	–	–	–	–	–	–	–	5.4	9	8.1	8.8	8.4	8.2	8.8	7.9
C/C(C#N)=C\c1cc(C)c(N2CCc3c(C)nc(Nc4ccc(C#N)cc4)nc32)c(C)c1 [Compound 34]	3980 nM	2.51 nM	20 nM	2 nM	15.8 nM	15.8 nM	105 °C	3.98 nM	20 nM	–	–	–	–	–	–	–	–
Cc1cc(/C=C/C#N)cc(C)c1-n1cnc2cnc(Nc3ccc(C#N)cc3)nc21 [Compound 20]	2000 nM	0.631 nM	15.8 nM	0.2 nM	7.94 nM	2.51 nM	> 250 °C	0.631 nM	39.8 nM	–	–	–	–	–	–	–	–
Cc1nc(Nc2ccc(C#N)cc2)nc2c1CCN2c1c(Cl)cc(C=CC#N)cc1Cl (mixture of isomers) [Compound 7a]	–	–	–	–	–	–	–	–	–	5.4	8.7	7.7	8.7	8.6	7.9	9.1	7.7
CCc1cc(C=CC#N)cc(CC)c1N1CCc2c(C)nc(Nc3ccc(C#N)cc3)nc21 (mixture of isomers) [Compound 3]	–	–	–	–	–	–	–	–	–	5.7	8.5	7.8	7.9	8.5	7.8	8.7	7.7
Cc1cc(/C=C/C#N)cc(C)c1-n1ccc2c(C)nc(Nc3ccc(C#N)cc3)nc21 [Compound 28]	–	–	–	–	–	–	–	–	–	5.7	8.5	7.7	8.5	8.5	7.9	8.6	7.8
Cc1nc(Nc2ccc(C#N)cc2)nc2c1CCN2c1c(F)cc(/C=C/C#N)cc1Cl [Compound 10]	–	–	–	–	–	–	–	–	–	5.7	9.1	8	9.2	8.7	8.4	9.2	7.9
